Measured values published in patent US11020358B2, “Method for the anti-senescence of and/or rejuvenating stem cells” (GWO XI STEM CELL APPLIED TECHNOLOGY CO., LTD., priority 2014, dated 2021).

Tests used:
Type in all cases: cell-based, human
[1] = test system: ADSCs; experiment: Semiquantitative RT-PCR of senescence, cell cycle and pluripotency genes in ADSCs
Experimental: (§1) Four portions of equal volume of the above culture medium containing the sub-cultured ADSCs were separately handled by adding thereinto H2O2 (purchased from Sigma-Aldrich) at a final concentration of 100 μM and reacting for 2 hours to induce senescence of the ADSCs, replacing the culture medium with a fresh culture medium, adding thereinto TC (trans-cinnamaldehyde, purchased from Sigma-Aldrich) at a final concentration of 0, 2, 4 or 6 μM and reacting for 6 hours, so as to obtain “H2O2 group (i.e., treated with H2O2 for 2 hours, but not treated with TC),” “H2O2+TC2 group (i.e., treated with H2O2 for 2 hours and then treated with 2 μM of TC for 6 hours),” “H2O2+TC4 group (i.e., treated with H2O2 for 2 hours and then treated with 4 μM of TC for 6 hours),” and “H2O2+TC6 group (i.e., treated with H2O2 for 2 hours and then treated with 6 μM of TC for 6 hours)” ADSCs.
The total cellular RNA of the ADSCs, BMMSCs and WJSCs in each sample of the group obtained from Example 1 (1) were extracted with an RNeasy Mini kit (purchased from Qiagen), and then reverse transcribed into cDNA by a reverse transcription kit (RT Pre Mix, purchased from iNtRON Biotechnology).
Each of the cDNA of the ADSCs of “untreated group,” “H2O2 group” and “H2O2+TC6 group” from Experiment (3-1) was handled as follows. […] The mixture was then placed in a revers transcription polymerase chain reaction (RT-PCR) machine. The RT-PCR reaction conditions were set as follows: i) 94° C. for 30 seconds, 55° C. for 30 seconds, and […] for 60 seconds, repeated for 30 cycles; ii) 72° C. for 10 minutes; and iii) cooling to 4° C. to stop the reaction. The RT-PCR product was analyzed by 2% agarose gel electrophoresis at a voltage of 100 volts for 30 minutes. Then, the gel was stained with ethidium bromide (EtBr) for 10 minutes, and photographed by a gel image documentation system (DOC PRINT DP-001FDC, VilberLourmat France).

[2] = test system: ADSCs; experiment: Flow cytometry of surface antigens of ADSCs; details: compared to untreated group
Experimental: as §1
Four portions of equal volume of the above culture medium containing the sub-cultured ADSCs were handled by adding thereinto TC at final concentrations of 0, 2, 4 and 6 μM respectively, and reacting for 6 hours to obtain “untreated group (i.e., without any treatment),” “TC2 group (i.e., treated only with 2 μM of TC),” “TC4 group (i.e., treated only with 4 μM of TC)” and “TC6 group (i.e., treated only with 6 μM of TC)” ADSCs. […]

[3] = test system: telomerase; experiment: Telomerase activity assay (TRAP) in ADSCs
Experimental: It has been know that the activity of telomerase plays a key role in controlling cell senescence. The activity of telomerase in each of the “untreated group,” “H2O2 group” and “TC6 group” ADSCs from Example 1 (1) was analyzed by Telomeric Repeat Amplification Protocol (TRAP) as follows. The 3′-end primer of telomere (i.e., Telo TAGGG) was extended by PCR under the catalysis of telomerase to amplify the TTAGGG repeat sequence. Then, signals of the product were detected by enzyme-linked immunosorbent assay (ELISA). The results are shown in FIG. 7, wherein the activity of telomerase in HEK293 cells (without any treatment) was served as a positive control group.

[4] = test system: hBMMSCs; experiment: SA-β-gal activity assay in hBMMSCs
Experimental: Three portions of equal volume of the above culture medium containing the sub-cultured hBMMSCs were provided. The first and second portions were handled by adding thereinto H2O2 at a final concentration of 100 μM, reacting for 2 hours to induce senescence of the hBMMSCs, replacing the culture medium with a fresh culture medium, adding thereinto TC at final concentrations of 0 and 6 μM respectively, and reacting for 6 hours to obtain “H2O2 group (i.e., treated with H2O2 for 2 hours, but not treated with TC)” and “H2O2+TC6 group (i.e., treated with H2O2 for 2 hours and then treated with 6 μM of TC for 6 hours) hBMMSCs. The third portion without any treatment was referred to as “untreated group” hBMMSCs.
(§2) The ADSCs in each sample of the group obtained from Example 1 (1) were washed with PBS twice, fixed with 3% formaldehyde and washed with PBS once. […]
The staining solution was removed. […] The cells were observed and photographed under a microscope with 10-fold magnification, and the percentage of SA-β-gal activity-positive cells was calculated. […]

[5] = test system: ADSCs; experiment: SA-β-gal activity assay in ADSCs
Experimental: as §1
Four portions of equal volume of the above culture medium containing the sub-cultured ADSCs were handled by adding thereinto TC at final concentrations of 0, 2, 4 and 6 μM respectively, and reacting for 6 hours to obtain “untreated group (i.e., without any treatment),” “TC2 group (i.e., treated only with 2 μM of TC),” “TC4 group (i.e., treated only with 4 μM of TC)” and “TC6 group (i.e., treated only with 6 μM of TC)” ADSCs.
It has been known that senescent cells in acidic environment (e.g., pH 6.0) show the activity of SA-β-gal. Therefore, the senescence level of cells can be reflected by measuring the expression level of SA-β-gal in the cells.
as §2
The staining solution was removed. […] The cells were observed and photographed under a microscope with 10-fold magnification, and the percentage of SA-β-gal activity-positive cells was calculated.

[6] = H2O2 group ADSCs compared to untreated group
[7] = H2O2+TC6 group ADSCs compared to H2O2 group

Row | SMILES | expression level of the SIRT1 gene (semiquantitative RT-PCR) [1, 6] | expression level of the p21 gene (semiquantitative RT-PCR) [1, 6] | expression level of the p53 gene (semiquantitative RT-PCR) [1, 6] | expression phenotypes of the surface antigens ([2]; 100 μM H2O2 2 h (H2O2 group)) | activity of telomerase [3, 6] | number of the SA-β-gal activity-positive hBMMSCs ([4]; H2O2 group (100 μM 2 h) compared to untreated group) | number of the SA-β-gal activity-positive cells ([5]; ADSCs, 100 μM H2O2 2 h, compared to untreated group) | expression level of the NANOG gene (semiquantitative RT-PCR) [1, 7] | expression level of the OCT4 gene (semiquantitative RT-PCR) [1, 7] | expression level of the SIRT1 gene (semiquantitative RT-PCR) [1, 7] | expression level of the p21 gene (semiquantitative RT-PCR) [1, 7] | expression level of the p53 gene (semiquantitative RT-PCR) [1, 7] | expression phenotypes of the surface antigens ([2]; 100 μM H2O2 2 h then 6 μM TC 6 h (H2O2+TC6 group)) | activity of telomerase ([3]; ADSCs, 6 μM TC (“TC6 group”), compared to H2O2 group) | number of the SA-β-gal activity-positive hBMMSCs ([4]; H2O2+TC6 group (6 μM TC 6 h after H2O2) compared to H2O2 group) | number of the SA-β-gal activity-positive cells ([5]; H2O2-senescent ADSCs, 2, 4 and 6 μM TC 6 h, compared to H2O2 group) | number of the SA-β-gal activity-positive cells ([5]; non-senescent ADSCs, 2, 4 and 6 μM TC 6 h, compared to untreated group)
1 | OO [H2O2, reference compound] | significantly decreased | significantly increased | significantly increased | not significantly changed | significantly decreased | significantly increased | significantly increased |  |  |  |  |  |  |  |  |  | 
2 | O=C/C=C/c1ccccc1 [TC, trans-cinnamaldehyde] |  |  |  |  |  |  |  | did not show significant difference | did not show significant difference | significantly increased | significantly decreased | significantly decreased | not significantly changed | significantly increased | significantly reduced | significantly reduced | significantly reduced along with the increment in the concentration of TC
